From US9664676B2, “RNA sequences that induce fluorescence of small molecule fluorophores” (Cornell University, priority 2013, dated 2017)

B1: tBroccoli: Broccoli with tRNA scaffold, SEQ ID NO: 38 (nucleic acid)
chain: GCCCGGATAGCTCAGTCGGTAGAGCAGCGGAGACGGTCGGGTCCAGATATTCGTATCTGTCGAGTAGAGTGTGGGCTCCGCGGGTCCAGGGTTCAAGTCCCTGTTCGGGCGCCA
modifications: chemistry not given here

Legend:
E. coli = assay: Fluorescence measurements of E. coli (colonies, suspensions) expressing aptamers with DFHBI-1T; type: cell-based, Escherichia coli
Description: Fluorescence Measurements of E. coli: Fluorescence measurements of E. coli were done in two general ways. To assess fluorescence brightness of bacterial colonies on a plate Acella or LMG194 strains cells were transferred to a new LB/agar dish with respective antibiotic and allowed to grow overnight at 37° C. Typically four to six colonies for the same aptamer were grown on the same plate to provide statistical data. These plates already contained 40 μM DFHBI-1T (or DFHBI) and 0.2% arabinose (in case of LMG194 strain). When Acella strain was used, 1 mM IPTG was added the next morning and incubation was continued for four to six hours more at 37° C. Bacterial colonies were then imaged under ChemiDoc MP imager as described above and images were processed in ImageJ program.
To measure fluorescence of bacterial cell suspensions BL21 Star (DE3) (Life Technologies) strain and pET28c-based expression plasmids were used. This combination provided the strongest signal. Fresh colony was inoculated into LB media with kanamycin and allowed to grow overnight at 37° C. to OD600 0.4. The cells were then induced with addition of 1 mM IPTG for 2-4 h at 37° C. After induction, cells were normalized for cell density and incubated with 400 μM DFHBI-1T. Cells were then measured for total fluorescence using a Genios Pro plate reader at 465 nm excitation and 535 nm emission. All values were normalized for slightly different excitation and emission spectra of Spinach2 and Broccoli.

[1] = Magnesium dependence of aptamer fluorescence; type: physicochemical; settings: MgCl2 titration
Description: To measure magnesium dependence 1 μM RNA was incubated with 10 μM 1T in 40 mM HEPES pH 7.4, 100 mM KCl buffer with different concentrations of MgCl2 and then fluorescence emission was measured on a plate reader.

HEK293T cells = assay: Flow cytometry of HEK293T cells expressing 5S rRNA-aptamer fusions with DFHBI-1T; type: cell-based; settings: flow cytometry
Description: FIG. 24 illustrates the quantification of the flow cytometry analysis of aptamers expression in mammalian cells. To compare specific aptamers' brightness in mammalian cells, HEK293T cells were transfected with two plasmids: one expressing aptamer (with or without tRNA) fused to 5S rRNA and another expressing mCherry fluorescent protein. Cells were then treated with 40 μM DFHBI-1T and analyzed on FACSAria III instrument in two channels: green (ex=488 nm; em=525±50 nm) and red (ex=561 nm and em=610±20). For quantification, mean fluorescent signal of the non-negative population was calculated and then mean fluorescent signal of the negative population was subtracted from it to assess specific, not background fluorescent signal. Finally, this number was multiplied by the percentage of the non-negative population to provide the total fluorescent signal of the non-negative population. These numbers are plotted on the bar graph above. Where indicated, cells were also pre-treated with 5 mM MgSO4. Error bar indicates robust SD calculated by FlowJo program, used for data analysis.
Imaging 5S-tBroccoli and 5S-t-tdBroccoli: Plasmids were transfected into HEK293T cell using FuGENE HD reagent (Promega) following manufacture's protocol. Cell imaging was carried out as previously described for 5S-Spinach (Paige et al., “RNA Mimics of Green Fluorescent Protein,” Science 333(6042): 642-6 (2011), which is hereby incorporated by reference in its entirety) with DFHBI-1T instead of DFHBI. […]
Flow cytometry was used to quantify average brightness of tRNA. Transfected cells were analyzed in two channels: green (ex=488 nm; em=525±50 nm) and red (ex=561 nm; em=610±20). […] As evidenced from FIG. 14A, 5S-tBroccoli and 5S-tdBroccoli are clearly detectable in the green fluorescence channel and this specific signal appears only upon cells treatment with DFHBI-1T (FIG. 23).

[2] = Folding measurements with DFHBI-1T; type: physicochemical; settings: for percent folded: in vitro folding assay
Description: Briefly, fluorescence intensity of two solutions were compared: the one having excess of the dye and limiting amount of RNA and the other with excess of RNA and limiting amount of the dye. 1 μM of 1T (or RNA) and 20 μM of RNA (or 1T) was used. Signal from the first condition (limiting RNA) was divided by the signal from the second condition (limiting dye) to determine the fraction folded. To measure folding in a context of different flanking sequences RNA was generated from separate dsDNA fragments. These fragments were PCR amplified to have β-actin, 5S rRNA and 7SK RNA sequences on either or both sides of Broccoli. The folding assay then proceeded as described above.
(§1) To measure the fluorescence of aptamer-fluorophore complexes, an approach that overcomes potential confounding effects of incomplete RNA folding was used. The fluorescence of RNA-fluorophore complexes can be measured in either of two ways: using “excess RNA” or “excess fluorophore” (Ponchon et al., “Recombinant RNA Technology: the tRNA Scaffold,” Nat. Methods 4(7): 571-6 (2007), which is hereby incorporated by reference in its entirety). In an “excess RNA” experiment enough RNA was added to ensure that all the fluorophore (e.g. 1 μM) is bound to the RNA even if a sizeable portion of the RNA is unfolded. As a result, one can be confident that a 1 μM RNA-fluorophore complex is present, and one can therefore calculate the “molar brightness,” the fluorescence of a specific concentration of RNA-fluorophore complex independent of RNA folding. In the case of excess fluorophore experimental conditions were reversed and 1 μM of RNA was used with a vast excess of the fluorophore. In this case, the amount of RNA-fluorophore complex is highly dependent on the amount of RNA that is folded.

[3] = In vitro fluorescence activation of DFHBI-1T by 29-1 and truncation mutants; type: biochemical; settings: excess RNA conditions
Description: In Vitro Characterization of Aptamers: dsDNA from the brightest bacterial cells in a library was PCR amplified from eluted plasmids. Truncation, deletion and point mutation mutants were generated from dsDNAs PCR amplified based on respective ssDNA templates (Protein and Nucleic Acid Facility, Stanford University Medical Center). Primers were designed so the PCR product contained T7 promoter sequence. When indicated, dsDNA or ssDNA also contained tRNA scaffold part. PCR products were then purified with PCR purification columns (Qiagen) and in vitro transcribed utilizing AmpliScribe T7-Flash Transcription Kit (Epicenter). RNA was purified using Bio-Spin columns (Bio-Rad), and quantified using both absorbance values and the Quant-iT RiboGreen RNA Assay Kit (Life Technologies).
All in vitro RNA properties were measured in 40 mM HEPES pH 7.4, 100 mM KCl, 1 mM MgCl2 buffer unless specified separately. All values presented are averaging of at least three independent experiments, error bars are standard deviations.
as §1

Row | Molecule | fluorescence of aptamer-expressing E. coli cells (E. coli; tRNA fusions, suspension/plate reader, DFHBI-1T) | magnesium concentration giving maximal fluorescence [1] [µM] | detection in HEK293T cells of 5S fusions without tRNA scaffold (HEK293T cells) | folding relative to 29-1 ([2]; in vitro) [%] | colony fluorescence compared to 29-1 (E. coli; E. coli colonies on LB-DFHBI-1T agar, tRNA scaffold) | percent folded [2] [%] | ability to induce DFHBI-1T fluorescence [3] | ability to induce DFHBI-1T fluorescence ([3]; listed as T2) | increase of E. coli fluorescence with 20 mM MgCl2 (E. coli; LB media with versus without 20 mM MgCl2, after 1 hr) [%]
1 | Broccoli: 49 nt RNA aptamer, SEQ ID NO: 75; 29-1-3-1 designated Broccoli (GAGACGGUCGGGUCCAGAUAUUCGUAUCUGUCGAGUAGAGUGUGGGCUC; further chemistry not given here) | more than twice as fluorescent as Spinach2-expressing cells | ~300 | can be detected in cells | 80 | – | – | – | – | –
2 | 29-1-T2: 56-nucleotide truncation of 29-1, SEQ ID NO: 4 (GAGACGGUCGGGUCCAGCACAAAAAUGUUGCUGUUGAGUAGAGUGUGGGCUC; listed as RNA, chemistry not given here) | – | – | – | – | significantly less bright than colonies expressing 29-1 | 45 | retained the ability to induce DFHBI-1T fluorescence | able to induce fluorescence of DFHBI-1T | –
3 | B1 | – | – | – | – | – | ~60 | – | – | 36
